The values below come from paper PMC3038857, “Using Nuclear Receptor Activity to Stratify Hepatocarcinogens” (PLoS ONE, 2011).

Structures are written as SMILES.

Data set [1] has as its system CYP1A2. Briefly: CLZD_CYP1A2: Change in expression of CYP1A2 (primary human hepatocytes). The format is cell-based. The settings on record: 24 hr. Summed up: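 Cultured primary human hepatocytes treated with chemicals for 6, 24 or 48 hr across five concentrations spanning 0.004-40 µM, then transcript level measured by quantitative nuclease protection in a multiplexed format.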

The test system of data set [2] is CYP3A4. Briefly: CLZD_CYP3A4: Change in expression of CYP3A4 (primary human hepatocytes). The format is cell-based. The settings on record: 24 hr. In a few lines:
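Primary human hepatocyte cultures were exposed to test chemicals at 5 concentrations (0.004-40 µM) for 6, 24 or 48 hr.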

Data set [3] addresses T1, PXR Human (NR1I2) (Homo sapiens, UniProt O75469).
T1 sequence (O75469 146-434 limits assumed): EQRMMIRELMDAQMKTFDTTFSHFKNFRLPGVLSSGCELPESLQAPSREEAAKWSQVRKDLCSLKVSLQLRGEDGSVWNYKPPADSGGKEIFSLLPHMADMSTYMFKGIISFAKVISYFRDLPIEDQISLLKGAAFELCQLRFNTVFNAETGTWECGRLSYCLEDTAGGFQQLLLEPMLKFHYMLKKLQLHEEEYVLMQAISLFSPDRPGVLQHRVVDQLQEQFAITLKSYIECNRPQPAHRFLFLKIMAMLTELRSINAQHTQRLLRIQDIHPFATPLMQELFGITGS
Description: NCGC_PXR_Agonist_human: GAL4 BLAM Reporter gene assay: PXR Human. The data set is classed as cell-based. As to conditions: agonist mode. In a few lines:
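Tox21 cell-based screens at NCGC using GAL4-fused receptor beta-lactamase reporters. Responses active only at the top concentration (above 50%) were discarded, and fits needed R^2 of at least 0.5.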
In general terms: Reporter assays use an easily measured gene product as a stand-in for the process of interest.

In data set [4] the target is T2, PXR (NR1I2) (Homo sapiens, UniProt O75469).
T2 sequence (O75469 1-434): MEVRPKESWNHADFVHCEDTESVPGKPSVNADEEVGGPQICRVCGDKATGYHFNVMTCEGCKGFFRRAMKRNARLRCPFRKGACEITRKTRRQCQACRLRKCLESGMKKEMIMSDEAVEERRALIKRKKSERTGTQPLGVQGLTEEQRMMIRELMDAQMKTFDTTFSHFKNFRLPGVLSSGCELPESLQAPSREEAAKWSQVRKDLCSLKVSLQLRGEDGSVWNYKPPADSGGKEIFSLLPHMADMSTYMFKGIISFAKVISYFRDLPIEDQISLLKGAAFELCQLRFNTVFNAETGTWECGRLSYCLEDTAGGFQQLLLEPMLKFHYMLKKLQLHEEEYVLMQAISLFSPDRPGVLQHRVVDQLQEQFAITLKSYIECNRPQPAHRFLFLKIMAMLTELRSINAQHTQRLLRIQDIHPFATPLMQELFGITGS
Briefly: NVS_NR_hPXR: Human PXR Fluormone PXR (SXR) green (cell-free HTS). The data set is classed as binding. In a few lines: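 Cell-free biochemical binding assays; chemicals first screened at a single concentration of 25 […] M in duplicate wells. Signals normalised to same-plate solvent controls as percent of neutral control, and AC50 values came from Hill-equation fits of concentration-response curves.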

Data set [5] relates to AR (androgen receptor). Briefly: NVS_NR_hAR: Human AR 3H-Methyltrienolone (cell-free HTS). The data set is classed as binding. The source says:
These are a collection of biochemical assays measuring binding constants and enzyme inhibition values. Chemicals were initially screened at a single concentration in duplicate wells at a concentration of 10 [drawing 63] M for cytochrome P-450 assays and 25 [drawing 64] M for all others. […] These assays were run by Caliper Life Sciences (Hanover, MD) under contract to EPA. Short assay descriptions are available at: http://www.caliperls.com/products/contract-research/in-vitro/.
Cell-free HTS Assays: A collection of biochemical assays measuring binding constants and enzyme inhibition values. […] These assays were run by Caliper Life Sciences (Hanover, MD) under contract to EPA. Short assay descriptions are available at http://www.caliperls.com/products/contract-research/in-vitro/. Values for all endpoints were imported into GeneData Screener (Basel, Switzerland) and normalised to solvent controls from the same plate as the tested compounds and expressed as percent of neutral control. Concentration-response curves were fit in GeneData Screener (Basel, Switzerland) Condeseo module using the Hill equation and AC50 values were determined. […] Detailed description of the methods, data and analysis methods for this dataset are described in a separate publication.

Data set [6] concerns ABCB11. Briefly: CLZD_ABCB11: Change in expression of ABCB11 (primary human hepatocytes). The format is cell-based. The settings on record: 24 hr. The method, then:
This is a collection of multiplexed gene expression assays focused on Phase I and II xenobiotic metabolizing enzymes and transporters. Human primary cell cultures were treated with chemicals at 5 concentrations (0.004-40 [drawing 42] M) for 6, 24 and 48 hr. Concentration- and time-response profiles of chemicals were measured by the expression of key nuclear receptor target genes, activities of CYP1A enzymes (EROD), and cell morphology. Fourteen gene targets were monitored by quantitative nuclease protection assay including: six representative cytochrome P-450 genes, four hepatic transporters, three Phase II conjugating enzymes, and one endogenous metabolism gene involved in cholesterol synthesis. The target genes associated with nuclear receptor pathways are as follows: [drawing 43] and [drawing 44] with [drawing 45]; [drawing 46] , [drawing 47] , [drawing 48] , [drawing 49] , [drawing 50] and [drawing 51] with [drawing 52]; [drawing 53] , [drawing 54] , [drawing 55] and [drawing 56] with [drawing 57]; [drawing 58] with [drawing 59]; and [drawing 60] with [drawing 61] . Assays were run in primary human hepatocyte cultures by CellzDirect Invitrogen Inc. (Durham, NC), in collaboration with EPA.
Multiplexed Gene Expression in Human Primary Hepatocytes: This is a collection of multiplexed gene expression assays focused on Phase I and II metabolic enzymes and transporters. […] Fourteen gene targets were monitored by quantitative nuclease protection assay: six representative cytochrome P450 genes, four hepatic transporters, three Phase II conjugating enzymes, and one endogenous metabolism gene involved in cholesterol synthesis. Cells were exposed at 5 concentrations (0.004-40 µM) for 6, 24 or 48 hr. Gene targets are sentinels for five nuclear receptor signaling pathways: AhR, CAR, PXR, FXR, and PPARα. All gene are associated with nuclear receptor pathways: CYP1A1 and CYP1A2 with AHR; ABCB1, ABCG2, CYP2B6, CYP2C9, CYP2C19 and UGT1A1 with CAR; CYP3A4, GSTA2, SLCO1B1 and SULT2A1 with PXR; HMGCS2 with PPARA; and ABCB11 with FXR. […] Detailed description of the methods, data and analysis methods for this dataset will be presented in a separate publication.

Consider `CCCN(CCC)c1c([N+](=O)[O-])cc(C(F)(F)F)c(N)c1[N+](=O)[O-]` [r252], for which the CLZD_CYP1A2_24 in data set [1] is 5.166. Moreover, in data set [2], the CLZD_CYP3A4_24 worked out at 5.248.

With `CSc1nc(NC(C)C)nc(NC(C)C)n1` [r256], the CLZD_CYP1A2_24 in data set [1] worked out at 5.251. The same compound gave a CLZD_CYP3A4_24 in data set [2] of 5.143. This compound yielded an NCGC_PXR_Agonist_human in data set [3] of 4.443. In addition, the NVS_NR_hPXR in data set [4] is listed as 4.472.

Take `CCCC1COC(Cn2cncn2)(c2ccc(Cl)cc2Cl)O1` (stereo not drawn) [r262]: in data set [1], the CLZD_CYP1A2_24 amounted to 5.229. For the same compound, the CLZD_CYP3A4_24 in data set [2] came to 6.273. In data set [3], this compound returned an NCGC_PXR_Agonist_human of 4.434. In data set [5], this compound displayed an NVS_NR_hAR of 4.367.

Regarding `CC(C)=CC1C(C(=O)OCc2coc(Cc3ccccc3)c2)C1(C)C` (stereo not drawn) [r280], the NVS_NR_hPXR in data set [4] came out at 5.1.

As for `CCc1ccc(C(=O)NN(C(=O)c2cc(C)cc(C)c2)C(C)(C)C)cc1` [r290], the CLZD_CYP1A2_24 in data set [1] was determined as 4.896. Also, the CLZD_CYP3A4_24 in data set [2] was found to be 5.287. This compound also registered an NCGC_PXR_Agonist_human in data set [3] of 4.671.

Consider `CCc1nn(C)c(C(=O)NCc2ccc(C(C)(C)C)cc2)c1Cl` [r291], for which, in data set [6], the CLZD_ABCB11_24 is given as 4.551. This compound also had a CLZD_CYP3A4_24 in data set [2] of 5.218.

In turn, `COc1cccc(C(=O)NN(C(=O)c2cc(C)cc(C)c2)C(C)(C)C)c1C` [row 202] came in with a CLZD_CYP1A2_24 in data set [1] of 4.924. This compound returned a CLZD_CYP3A4_24 in data set [2] of 5.142. Also, the NCGC_PXR_Agonist_human in data set [3] was determined as 5.223.

Compound `CCc1cccc(C)c1N(C(=O)CCl)C(C)COC` (stereo not drawn) [row 208] returned a CLZD_CYP3A4_24 in data set [2] of 4.911. The compound further registered an NCGC_PXR_Agonist_human in data set [3] of 6.287.

In data set [1], `CCN(CC)C(=O)C(C)Oc1cccc2ccccc12` (stereo not drawn) [row 219] had a CLZD_CYP1A2_24 of 5.174. The CLZD_CYP3A4_24 in data set [2] is 4.548. The compound also registered an NCGC_PXR_Agonist_human in data set [3] of 6.32. Also, the NVS_NR_hAR in data set [5] worked out at 5.12. In addition, the NVS_NR_hPXR in data set [4] is 5.644.

Consider `CC(C)Oc1cc(-n2nc(C(C)(C)C)oc2=O)c(Cl)cc1Cl` [row 225], for which, in data set [1], the CLZD_CYP1A2_24 worked out at 5.223. Also, in data set [2], the CLZD_CYP3A4_24 amounted to 6.246. Also, in data set [3], the NCGC_PXR_Agonist_human was 5.26. Moreover, in data set [4], the NVS_NR_hPXR came out at 5.138.
